Assay results published in patent US20100041089A1, “IMPROVED METHOD FOR DETECTING CHEMICAL […]” (priority 2006, published 2010).

Tested on: yeast genes (expressed mRNA)
Assay: DNA chip measurement of expressed mRNA of yeast genes after culture with a toxic chemical substance
Format: cell-based, Saccharomyces cerevisiae S288C
Conditions: for level of expressed mRNA in the presence of chemical substance / level in the absence of chemical substance: cultured two hours with the chemical substance; for The level of expressed mRNA in the presence of chemical substance/The level of expressed mRNA in the absence of chemical substance: cultured two hours with substance
Method in brief: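 Expression is given as treated/untreated fluorescence ratio on a whole-genome yeast DNA chip, a ratio of two or more being significant. Log-phase S288C cultures in YPD at 25 °C received the chemical for 2 h at a dose that slows growth without killing. mRNA was reverse-transcribed with Cy3- or Cy5-dUTP.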

[Cl][Cd][Cl] [(2), CdCl2]
level of expressed mRNA in the presence of chemical substance / level in the absence of chemical substance (yeast gene YNL058C): 1.0
level of expressed mRNA in the presence of chemical substance / level in the absence of chemical substance (yeast gene YNL063W): 1.9
The level of expressed mRNA in the presence of chemical substance/The level of expressed mRNA in the absence of chemical substance (yeast gene YNL074C): 1.3
The level of expressed mRNA in the presence of chemical substance/The level of expressed mRNA in the absence of chemical substance (yeast gene YNL092W): 1.4
The level of expressed mRNA in the presence of chemical substance/The level of expressed mRNA in the absence of chemical substance (yeast gene YNL115C): 1.8
The level of expressed mRNA in the presence of chemical substance/The level of expressed mRNA in the absence of chemical substance (yeast gene YNL156C): 1.2
level of expressed mRNA in the presence of chemical substance / level in the absence of chemical substance (yeast gene YNL176C): 1.3
level of expressed mRNA in the presence of chemical substance / level in the absence of chemical substance (yeast gene YNL194C): 0.7
level of expressed mRNA in the presence of chemical substance / level in the absence of chemical substance (yeast gene YNL200C): 3.0
The level of expressed mRNA in the presence of chemical substance/The level of expressed mRNA in the absence of chemical substance (yeast gene YNL234W): 1.1
level of expressed mRNA in the presence of chemical substance / level in the absence of chemical substance (yeast gene YNL253W): 1.3
level of expressed mRNA in the presence of chemical substance / level in the absence of chemical substance (yeast gene YNL276C): 13.1
The level of expressed mRNA in the presence of chemical substance/The level of expressed mRNA in the absence of chemical substance (yeast gene YNL281W): 1.3
The level of expressed mRNA in the presence of chemical substance/The level of expressed mRNA in the absence of chemical substance (yeast gene YNL305C): 2.2
level of expressed mRNA in the presence of chemical substance / level in the absence of chemical substance (yeast gene YNR051C): 0.5
The level of expressed mRNA in the presence of chemical substance/The level of expressed mRNA in the absence of chemical substance (yeast gene YNR068C): 1.5
level of expressed mRNA in the presence of chemical substance / level in the absence of chemical substance (yeast gene YOL026C): 2.7
The level of expressed mRNA in the presence of chemical substance/The level of expressed mRNA in the absence of chemical substance (yeast gene YOL032W): 0.8
The level of expressed mRNA in the presence of chemical substance/The level of expressed mRNA in the absence of chemical substance (yeast gene YOL036W): 0.9
The level of expressed mRNA in the presence of chemical substance/The level of expressed mRNA in the absence of chemical substance (yeast gene YOL047C): 1.1
The level of expressed mRNA in the presence of chemical substance/The level of expressed mRNA in the absence of chemical substance (yeast gene YOL071W): 2.0
The level of expressed mRNA in the presence of chemical substance/The level of expressed mRNA in the absence of chemical substance (yeast gene YOL082W): 1.6
The level of expressed mRNA in the presence of chemical substance/The level of expressed mRNA in the absence of chemical substance (yeast gene YOL083W): 2.3
The level of expressed mRNA in the presence of chemical substance/The level of expressed mRNA in the absence of chemical substance (yeast gene YOL117W): 1.1
The level of expressed mRNA in the presence of chemical substance/The level of expressed mRNA in the absence of chemical substance (yeast gene YOL131W): 1.5
The level of expressed mRNA in the presence of chemical substance/The level of expressed mRNA in the absence of chemical substance (yeast gene YOL150C): 3.7
The level of expressed mRNA in the presence of chemical substance/The level of expressed mRNA in the absence of chemical substance (yeast gene YOL162W): 6.9
The level of expressed mRNA in the presence of chemical substance/The level of expressed mRNA in the absence of chemical substance (yeast gene YOR019W): 1.2
level of expressed mRNA in the presence of chemical substance / level in the absence of chemical substance (yeast gene YOR022C): 1.1
level of expressed mRNA in the presence of chemical substance / level in the absence of chemical substance (yeast gene YOR087W): 1.0
level of expressed mRNA in the presence of chemical substance / level in the absence of chemical substance (yeast gene YOR138C): 1.5
The level of expressed mRNA in the presence of chemical substance/The level of expressed mRNA in the absence of chemical substance (yeast gene YOR197W): 1.0
level of expressed mRNA in the presence of chemical substance / level in the absence of chemical substance (yeast gene YOR253W): 2.8
level of expressed mRNA in the presence of chemical substance / level in the absence of chemical substance (yeast gene YOR267C): 0.7
level of expressed mRNA in the presence of chemical substance / level in the absence of chemical substance (yeast gene YOR325W): 2.6
level of expressed mRNA in the presence of chemical substance / level in the absence of chemical substance (yeast gene YPL005W): 1.0
The level of expressed mRNA in the presence of chemical substance/The level of expressed mRNA in the absence of chemical substance (yeast gene YPL087W): 5.1
level of expressed mRNA in the presence of chemical substance / level in the absence of chemical substance (yeast gene YPL150W): 0.9
level of expressed mRNA in the presence of chemical substance / level in the absence of chemical substance (yeast gene YPL152W): 1.1
level of expressed mRNA in the presence of chemical substance / level in the absence of chemical substance (yeast gene YPL168W): 1.5
level of expressed mRNA in the presence of chemical substance / level in the absence of chemical substance (yeast gene YPL180W): 2.0
level of expressed mRNA in the presence of chemical substance / level in the absence of chemical substance (yeast gene YPL188W): 1.2
The level of expressed mRNA in the presence of chemical substance/The level of expressed mRNA in the absence of chemical substance (yeast gene YPL196W): 1.6
The level of expressed mRNA in the presence of chemical substance/The level of expressed mRNA in the absence of chemical substance (yeast gene YPL206C): 2.9
level of expressed mRNA in the presence of chemical substance / level in the absence of chemical substance (yeast gene YPL221W): 3.0
The level of expressed mRNA in the presence of chemical substance/The level of expressed mRNA in the absence of chemical substance (yeast gene YPL222W): 3.5
level of expressed mRNA in the presence of chemical substance / level in the absence of chemical substance (yeast gene YPL225W): 1.7
The level of expressed mRNA in the presence of chemical substance/The level of expressed mRNA in the absence of chemical substance (yeast gene YPR023C): 1.4
level of expressed mRNA in the presence of chemical substance / level in the absence of chemical substance (yeast gene YPR049C): 2.5
level of expressed mRNA in the presence of chemical substance / level in the absence of chemical substance (yeast gene YPR146C): 1.6
level of expressed mRNA in the presence of chemical substance / level in the absence of chemical substance (yeast gene YPR148C): 1.2
The level of expressed mRNA in the presence of chemical substance/The level of expressed mRNA in the absence of chemical substance (yeast gene YPR151C): 2.0
level of expressed mRNA in the presence of chemical substance / level in the absence of chemical substance (yeast gene YPR172W): 1.6
